# According to patent US20060014740A1 (priority 2003, published 2006):
# Where a name gives a salt, the structure may show the parent alone. Read-outs that look alike come from different tables or passages of the source.
# Assays:
# Assay type in all cases: cell-based
# [1] = tested on: TSU-Pr1 human prostate cancer cells; assay: SRB cytotoxicity assay, TSU-Pr1
# Method: (§1) Dr. Mitchell Steiner at University of Tennessee Health Science Center, kindly provided PPG-1 and TSU-PrI cells.
# (§2) For in vitro cytotoxicity screening, 1000 to 5000 cells were plated into each well of 96-well plates depending on growth rate, and exposed to different concentrations of a test compound for 96 h in three to five replicates. All the compounds were dissolved in dimethyl sulfoxide at 5 to 20 mM, and diluted to desired concentrations in complete culture medium. Cell numbers at the end of the drug treatment were measured by the SRB assay (Gududuru et al., “Synthesis and Biological Evaluation of Novel Cytotoxic Phospholipids for Prostate Cancer,” Bioorg. Med. Chem. Lett. 14:4919-4923 (2004); Rubinstein et at., “Comparison of in vitro Anticancer-Drug-Screening Data Generated with a Tetrazolium Assay Versus a Protein Assay Against a Diverse Panel of Human Tumor Cell Lines,” J. Naatl, Cancer Inst. 82:1113-1118 (1990), each of which is hereby incorporated by reference in its entirety). Briefly, the cells were fixed with 10% of trichloroacetic acid, stained with 0.4% SRB, and the absorbances at 540 nm was measured using a plate reader (DYNEX Technologies, Chantilly, Va.).
# (§3) The antiproliferative activity of all the synthesized compounds was evaluated against five human prostate cancer cell lines and in RH7777 cells (negative control) using the sulforhodamine B (SRB) assay (see description in Example 5 above).
# (§4) The chosen cell lines represent different basal levels of active AKT and LPL receptor expression (discussed later). Cells were exposed to a wide range of concentrations (0 to 100 μM) of the indicated compound for 96 h. Cell numbers at the end of treatment were measured using the sulforhodamine B (SRB) assay^5.
# (§5) Cells were exposed to a wide range of concentrations (0 to 100 μM) of the particular compound for 96 h in 96 well plates. Cells were fixed with 10% trichloroacetic acid, washed five times with water. The plates were air dried overnight and fixed cells were stained with SRB solution. The cellular protein-bound SRB was measured at 540 nm using a plate reader. Cell numbers at the end of the treatment were measured.
# as §5, with “96-well” for “96 well”, “calculated as a percentage of untreated control.” for “measured.”
# [2] = tested on: LNCaP human prostate cancer cells; assay: SRB cytotoxicity assay, LNCaP; settings: for IC50: read-out: IC50 LNCaP
# Method: as §2, §3, §4, §5
# as §5, with “96-well” for “96 well”, “calculated as a percentage of untreated control.” for “measured.”
# [3] = tested on: PC-3 human prostate cancer cells; assay: SRB cytotoxicity assay, PC-3; settings: for IC50: read-out: IC50 PC-3
# Method: as §2, §3, §4, §5
# as §5, with “96-well” for “96 well”, “calculated as a percentage of untreated control.” for “measured.”
# [4] = tested on: PPC-1 human prostate cancer cells; assay: SRB cytotoxicity assay, PPC-1; settings: read-out: IC50 PPC-1
# Method: as §1, §2, §3, §4, §5
# as §5, with “96-well” for “96 well”, “calculated as a percentage of untreated control.” for “measured.”
# [5] = tested on: DU-145 human prostate cancer cells; assay: SRB cytotoxicity assay, DU-145
# Method: as §2, §3, §4, §5
# as §5, with “96-well” for “96 well”, “calculated as a percentage of untreated control.” for “measured.”
# [6] = tested on: human breast cancer cell line (MCF-7); assay: SRB cytotoxicity assay, MCF-7; settings: read-out: IC50 MCF-7
# Method: as §2
# In vitro cytotoxicity assay was performed by the same sulforhodamine B (SRB) assay (described above). The compounds shown in Table 8 below where tested for activity against the breast cancer and ovarian cancer cell lines.
# as §4, §5
# [7] = tested on: RH7777 rat hepatoma cells; assay: SRB cytotoxicity assay, RH7777 control cell line; settings: read-out: IC50 RH7777
# Method: as §2, §3, §4, §5
# as §5, with “96-well” for “96 well”, “calculated as a percentage of untreated control.” for “measured.”
# [8] = Homo sapiens, LNCaP, Table 3, 96 h
# [9] = Homo sapiens, PPC-1, Table 3, 96 h
# [10] = Homo sapiens, DU-145, read-out: IC50 DU-145, Table 3, 96 h
# [11] = Homo sapiens, MCF7, Table 8, breast cancer cell line
# [12] = Rattus norvegicus, RH7777, Table 3, control cell line, 96 h
# [13] = Homo sapiens, TSU-Pr1, Example 11 table, 96 h, read-out: IC50 TSU-Pr1
# [14] = Homo sapiens, LNCaP, Example 11 table, 96 h
# [15] = Homo sapiens, Example 11 table, 96 h
# [16] = Homo sapiens, PPC-1, Example 11 table, 96 h
# [17] = Homo sapiens, DU-145, Example 11 table, 96 h, read-out: IC50 DU145
# [18] = Homo sapiens, MCF7, Example 11 table, 96 h
# [19] = Rattus norvegicus, RH7777, Example 11 table, 96 h
# [20] = Homo sapiens, LNCaP, Example 10 table, 96 h
smiles,measurement,setting,value
CCCCCCCCCCCCC1OC[C@@H](COP(=O)(O)O)O1.N.N (stereo partly drawn),IC50,"[1]; Example 11 table, 96 h, read-out: IC50 TSU-Pr1",> 100 µM
same,IC50 LNCaP,"[2]; Example 11 table, 96 h",No toxicity
same,IC50 PC-3,"[3]; Example 11 table, 96 h",No toxicity
same,IC50,"[4]; Example 11 table, 96 h",> 100 µM
same,IC50,"[5]; Example 11 table, 96 h, read-out: IC50 DU145",> 100 µM
same,IC50,"[6]; Example 11 table, 96 h",> 100 µM
same,IC50,"[7]; Example 11 table, 96 h",> 100 µM
"CCCCCCCCCCCCCCCCCCCNC(=O)[C@@H]1CSC(c2ccccc2)N1 (mixture of isomers) [Compound 6-HCI, (2RS, 4R)-2-Phenylthiazolidine-4-carboxylic acid nonadecylamide Hydrochloride]",IC50,"[1]; Table 3, 96 h, read-out: IC50 TSU-Pr1",> 20 µM
same,IC50,"[2]; Table 3, 96 h",13.6 µM
same,IC50,"[4]; Table 3, 96 h",16.8 µM
same,IC50,"[5]; read-out: IC50 DU-145, Table 3, 96 h",> 20 µM
same,IC50,"[6]; Table 8, breast cancer cell line",> 20 µM
"CCCCCCCCCCCCCCCCCCNC(=O)[C@@H]1CSC(CCCCCCCCCCCC)N1 (mixture of isomers) [Compound 7, (2RS, 4R)-2-Dodecylthiazolidine-4-carboxylic acid octadecylamide]",IC50,"[1]; Homo sapiens, TSU-Pr1, Table 3, 96 h, read-out: IC50 TSU-Pr1",10.7 µM
same,IC50,[2]; [8],11.9 µM
same,IC50,"[3]; Homo sapiens, Table 3, 96 h",15 µM
same,IC50,[4]; [9],13 µM
same,IC50,[5]; [10],8.9 µM
same,IC50,[6]; [11],10.4 µM
same,IC50,[7]; [12],~20 µM
"CCCCCCCCCCCCCCCCCCNC(=O)[C@@H]1CSC(c2ccc(OC)cc2)N1 (mixture of isomers) [Compound 15-HCI, (2RS, 4R)-2-(4-Methoxy-phenyl)-thiazolidine-4-carboxylic acid octadecylamide Hydrochloride]",IC50,[2]; [8],2.1 µM
same,IC50,"[3]; Homo sapiens, Table 3, 96 h",~20 µM
same,IC50,[4]; [9],1.5 µM
same,IC50,[5]; [10],8.7 µM
same,IC50,[6]; [11],16.3 µM
same,IC50,[7]; [12],> 20 µM
CCCCCCCCCCCCCCCCCCNC[C@H](CO)NC [drawing 51],IC50,[1]; [13],> 100 µM
same,IC50,[2]; [14],> 100 µM
same,IC50,[3]; [15],> 100 µM
same,IC50,[4]; [16],> 100 µM
same,IC50,[5]; [17],> 100 µM
same,IC50,[6]; [18],> 100 µM
same,IC50,[7]; [19],> 100 µM
"O=c1[nH]cc(F)c(=O)[nH]1 [5-FU, 5-fluorouracil, reference compound]",IC50,[2]; [20],4.9 µM
same,IC50,"[2]; Homo sapiens, LNCaP, Table 6",4.9 µM
CCCCCCCCCCCCCCCCCCNC[C@@H](N)CO [drawing 52],IC50,[2]; [14],3.3 µM
same,IC50,[6]; [18],2.9 µM
O=C(O)[C@@H]1CSC(c2ccc(-c3ccccc3)cc2)N1 (stereo partly drawn),IC50,[1]; [13],~100 µM
same,IC50,[2]; [14],71 µM
same,IC50,[3]; [15],> 100 µM
same,IC50,[4]; [16],> 100 µM
same,IC50,[5]; [17],> 100 µM
same,IC50,[6]; [18],> 100 µM
same,IC50,[7]; [19],> 100 µM
"CCCCCCCCCCCCCCCCCCNC(=O)[C@@H]1CSC(c2cccc(O)c2)N1 (mixture of isomers) [Compound 14, (2RS, 4R)-2-(3-Hydroxy-phenyl)-thiazolidine-4-carboxylic add octadecylamide]",IC50,"[7]; Table 3, control cell line, 96 h",31 µM
"CCCCCCCCCCCCCCCCCCNCCN1C(=O)CSC1c1ccccc1 (stereo not drawn) [Compound 79, 3-(2-(octadecylamino)ethyl)-2-phenylthiazolidin-4-one]",IC50,"[1]; Homo sapiens, TSU-Pr1, Table 7, read-out: IC50 TSU",6.1 µM
same,IC50,"[2]; Homo sapiens, LNCaP, Table 7",> 20 µM
same,IC50,"[3]; Homo sapiens, Table 7",> 20 µM
same,IC50,"[4]; Homo sapiens, PPC-1, Table 7",12 µM
same,IC50,"[5]; Homo sapiens, DU-145, read-out: IC50 DU-145, Table 7",15.8 µM
same,IC50,"[7]; Rattus norvegicus, RH7777, Table 7, control cell line",> 20 µM
O=C(O)[C@@H]1CSC(c2cc(F)cc(F)c2)N1 (stereo partly drawn),IC50,[1]; [13],> 100 µM
same,IC50,[2]; [14],> 100 µM
same,IC50,[3]; [15],> 100 µM
same,IC50,[4]; [16],> 100 µM
same,IC50,[5]; [17],> 100 µM
same,IC50,[6]; [18],> 100 µM
same,IC50,[7]; [19],> 100 µM
CCCCCCCCCCCCCCCCCCNCC(CO)NC (stereo not drawn) [compound 318],IC50,"[2]; Table 9, 96 h",3.3 µM
CCCCCCCCCCCCCCCCCCCCNC[C@@H](N)CO [S4],IC50,"[1]; Homo sapiens, TSU-Pr1, Example 10 table, 96 h, read-out: IC50 TSU-Pr1",2.2 µM
same,IC50,[2]; [20],5.1 µM
same,IC50,"[3]; Homo sapiens, Example 10 table, 96 h",2.6 µM
same,IC50,"[4]; Homo sapiens, PPC-1, Example 10 table, 96 h",1.9 µM
same,IC50,"[5]; Homo sapiens, DU-145, read-out: IC50 DU-145, Example 10 table, 96 h",4.1 µM
same,IC50,"[6]; Homo sapiens, MCF7, Example 10 table, 96 h",4.6 µM
same,IC50,"[7]; Rattus norvegicus, RH7777, Example 10 table, 0 to 100 μM for 96 h",2.9 µM
"CCCCCCCCCCCCCCCCCCNC(=O)[C@@H]1CSC(c2c(Cl)cccc2Cl)N1 (mixture of isomers) [Compound 24, (2RS, 4R)-2-(2,6-Dichloro-phenyl)-thiazolidine-4-carboxylic acid octadecylamide]",IC50,"[1]; Homo sapiens, TSU-Pr1, Table 4, 96 h, read-out: IC50 TSU-Pr1",~20 µM
same,IC50,"[2]; Homo sapiens, LNCaP, Table 4, 96 h",13.1 µM
same,IC50,"[3]; Homo sapiens, Table 4, 96 h",> 20 µM
same,IC50,"[4]; Homo sapiens, PPC-1, Table 4, 96 h",17.1 µM
same,IC50,"[5]; Homo sapiens, DU-145, read-out: IC50 DU-145, Table 4, 96 h",> 20 µM
same,IC50,[6]; [11],17.7 µM
same,IC50,"[7]; Rattus norvegicus, RH7777, Table 4, control cell line, 96 h",> 20 µM
COc1ccc(C2N[C@H](C(=O)O)CS2)cc1 (stereo partly drawn),IC50,"[1]; Homo sapiens, TSU-Pr1, 96 h, read-out: IC50 TSU-Pr1",> 100 µM
same,IC50,"[2]; Homo sapiens, LNCaP, 96 h",~50 µM
same,IC50,"[3]; Homo sapiens, 96 h",> 100 µM
same,IC50,"[4]; Homo sapiens, PPC-1, 96 h",> 100 µM
same,IC50,"[5]; Homo sapiens, DU-145, 96 h, read-out: IC50 DU145",~100 µM
same,IC50,"[6]; Homo sapiens, MCF7, 96 h",~100 µM
same,IC50,"[7]; Rattus norvegicus, RH7777, 96 h",> 100 µM
N#Cc1ccc(C2N[C@H](C(=O)O)CS2)cc1 (stereo partly drawn),IC50,[1]; [13],> 100 µM
same,IC50,[2]; [14],> 100 µM
same,IC50,[3]; [15],> 100 µM
same,IC50,[4]; [16],> 100 µM
same,IC50,[5]; [17],> 100 µM
same,IC50,[6]; [18],> 100 µM
same,IC50,[7]; [19],> 100 µM
CCCCCCCCCCCCCCCCCCCCNCC(CO)NC (stereo not drawn) [S3],IC50,"[2]; Example 10 table, 96 h",3.3 µM
same,IC50,"[6]; Example 10 table, 96 h",2.9 µM
"CCCCCCCCCCCCCCCCCCNC(=O)[C@@H]1CSC(c2ccc(C#N)cc2)N1 (mixture of isomers) [Compound 22, (2RS, 4R)-2-(4-Cyano-phenyl)-thiazolidine-4-carboxylic acid octadccylamide]",IC50,"[3]; Table 4, 96 h",> 20 µM
same,IC50,"[7]; Table 4, control cell line, 96 h",> 20 µM
COc1ccc(CCNC(=O)CN2C(=O)CSC2c2ccccc2)c(OC)c1 (stereo not drawn) [Compound 78],IC50,"[1]; Table 6, read-out: IC50 TSU-Pr1",> 100 µM
same,IC50,[2]; Table 6,> 100 µM
same,IC50,[3]; Table 6,> 100 µM
same,IC50,[4]; Table 6,> 100 µM
same,IC50,"[5]; read-out: IC50 DU-145, Table 6",> 100 µM
same,IC50,"[7]; Table 6, control cell line",> 100 µM
